Measurements taken from patent US10703764B2, “Benzopiperazine compositions as BET bromodomain inhibitors” (FORMA Therapeutics, Inc., priority 2013, dated 2020).

What was measured:
[1] = molecular target: T1, BRD4 BD2 (Homo sapiens, UniProt O60885); assay: AlphaScreen binding assay, BRD4 Bromodomain 2
T1 construct: made in house
How it was run: (§1)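 Compound dilution series were mixed with His-tagged BRD4 bromodomain and biotinylated tetra-acetylated H4 (1-21) peptide at pH 7.3 (BD1 and peptide at 50 nM, BD2 and peptide at 100 nM). Donor and acceptor beads were then added, and plates were equilibrated at least 1 h before reading. IC50 values were fitted with a four-parameter logistic model.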

[2] = tested on: MV4-11 cells; assay: Oncology cell growth assay (3-day proliferation, CellTiter-Glo); assay type: cell-based; settings: Homo sapiens, MV4-11, 72 h, AML cell line MV4-11, 72 hours, compounds grouped by IC50 range, read-out: MV4-11 IC50 (inhibition of proliferation, gIC50)
How it was run: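 Luminescence from CellTiter-Glo served as the growth read-out after MV4-11 cells (3000/well) were cultured with compound for 72 hours. Final concentrations spanned 10 to 0.0045 μM in 3-fold steps. gIC50 values were derived by four-parameter logistic fitting relative to DMSO and cell-free controls.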

[3] = molecular target: T2, BRD4 BD1 (Homo sapiens, UniProt O60885); assay: AlphaScreen binding assay, BRD4 Bromodomain 1
T2 construct: made in house
How it was run: as §1

Compound	IC50 [1] [nM]	IC50 [2] [nM]	IC50 [3] [nM]
CC(=O)N1c2ccc(-c3cnn(CCO)c3)cc2N(c2nn(C)c3cc(F)ccc23)C[C@@H]1C [Example I-188, 1-[(2S)-4-(6-fluoro-1-methyl-1H-indazol-3-yl)-6-[1-(2-hydroxyethyl)-1H-pyrazol-4-yl]-2-methyl-1,2,3,4-tetrahydroquinoxalin-1-yl]ethan-1-one]	< 50	100 to 500	100 to 1000
CC(=O)N1c2ccc(-c3ccc(N(C)C)cc3)cc2N(C(=O)c2ccco2)C[C@@H]1C [Example I-871]	< 50	100 to 500	100 to 1000
CC(=O)N1c2ccc(-c3cccc(N4CCCS4(=O)=O)c3)cc2N(C(=O)C2CCC2)C[C@@H]1C [Example I-1161]	50 to 500	> 500	1000 to 10000
COC(=O)N1c2ccc(-c3cnn(CC(=O)N(C)C)c3)cc2N(C(=O)OC(C)C)C[C@@H]1C [Example I-320]	50 to 500	> 500	100 to 1000
CC(=O)N1c2ccc(-c3cccc(S(=O)(=O)NCCO)c3)cc2N(C(=O)OC2CCOCC2)C[C@@H]1C [Example I-1256]	50 to 500	100 to 500	100 to 1000
CC(=O)Nc1cc2c(cc1Br)N(C(=O)OC(C)C)C[C@H](C)N2C(C)=O [Example I-203, Isopropyl (S)-6-acetamido-4-acetyl-7-bromo-3-methyl-3,4-dihydro quinoxaline-1(2H)-carboxylate]	> 500	> 500	1000 to 10000
COc1cc(-c2ccc3c(c2)N(C(=O)c2ccco2)C[C@H](C)N3C(C)=O)ccn1 [Example I-863]	50 to 500	> 500	1000 to 10000
CC(=O)N1c2ccc(-c3ccc(S(=O)(=O)NC4CC4)cc3)cc2N(C(=O)c2ccco2)C[C@@H]1C [Example I-268]	< 50	< 100	100 to 1000
CC(=O)N1c2ccc(-c3cnn(CC4(C)COC4)c3)cc2N(C(=O)C2CC2)C[C@@H]1C [Example I-124, (S)-1-(4-(cyclopropanecarbonyl)-2-methyl-6-(1-((3-methyloxetan-3-yl)methyl)-1H-pyrazol-4-yl)-3,4-dihydroquinoxalin-1(2H)-yl)ethanone]	< 50	100 to 500	1000 to 10000
CC(C)OC(=O)N1C[C@H](C)N(C(=O)C2CC2)c2ccc(-c3cnn(C[C@H]4CCNC4)c3)cc21 [Example I-690]	50 to 500	> 500	100 to 1000
CC(=O)N1c2ccc(-c3cnn(C4CC4)c3)cc2N(C(=O)Oc2cccc(C#N)c2)C[C@@H]1C [Example I-501]	50 to 500	100 to 500	100 to 1000
CC(=O)N1c2ccc(-c3cnn(C4CC4)c3)cc2N(c2nn(C)c3cccnc23)C[C@@H]1C [Example I-187, 1-[(2S)-6-(1-cyclopropyl-1H-pyrazol-4-yl)-2-methyl-4-{1-methyl-1H-pyrazolo[4,3-b]pyridin-3-yl}-1,2,3,4-tetrahydroquinoxalin-1-yl]ethan-1-one]	50 to 500	> 500	1000 to 10000
CC(=O)N1c2ccc(-c3ccc(C4(O)COC4)cc3)cc2N(C(=O)c2ccco2)C[C@@H]1C [Example I-415]	< 50	100 to 500	100 to 1000
CC(=O)N1c2ccc(-c3ccc(NS(=O)(=O)C4CC4)cc3)cc2N(C(=O)OC(C)C)C[C@@H]1C [Example I-347]	< 50	< 100	< 100
CC(=O)N1c2ccc(-c3ccc(S(N)(=O)=O)c(F)c3)cc2N(C(=O)OC(C)C)C[C@@H]1C [Example I-1298]	50 to 500	> 500	1000 to 10000
CC(=O)N1c2ccc(-c3cnn(C4CC4)c3)cc2N(C(=O)OCC2CC2)C[C@@H]1C [Example I-994]	50 to 500	100 to 500	100 to 1000
CC(=O)N1c2ccc(-c3cnn(C4CS(=O)(=O)C4)c3)cc2N(C(=O)C2CC2)C[C@@H]1C [Example I-1305]	< 50	> 500	1000 to 10000
CC(=O)N1c2ccc(-c3cnn(C4CC4)c3)cc2N(C(=O)Oc2cncc(Cl)c2)C[C@@H]1C [Example I-1187]	< 50	> 500	100 to 1000
CC(=O)N1c2ccc(-c3ccc(C(=O)N4CCN(C)CC4)cc3)cc2N(C(=O)OC(C)C)C[C@@H]1C [Example I-544]	50 to 500	100 to 500	100 to 1000
CC(=O)N1c2ccc(-c3cnn(Cc4c[nH]cn4)c3)cc2N(C(=O)OC(C)C)CC1C (stereo not drawn) [Example I-601]	< 50	100 to 500	100 to 1000
CC(=O)N1c2ccc(-c3cnn(C4CC4)c3)cc2N(c2nn(C)c3cc(F)ccc23)C[C@@H]1C [Example I-54, (S)-1-(6-(1-cyclopropyl-1H-pyrazol-4-yl)-4-(6-fluoro-1-methyl-1H-indazol-3-yl)-2-methyl-3,4-dihydroquinoxalin-1(2H)-yl)ethanone]	50 to 500	< 100	100 to 1000

Compound	IC50 [1] [nM]	IC50 [2] [nM]	IC50 [3] [nM]
CC(=O)N1c2ccc(-c3cnn(C4CNC4)c3)cc2N(C(=O)OC(C)C)C[C@@H]1C [Example I-356]	< 50	100 to 500	100 to 1000
CC(=O)N1c2ccc(-c3ccc(C)s3)cc2N(C(=O)c2ccco2)C[C@@H]1C [Example I-872]	< 50	100 to 500	100 to 1000
CC(=O)N1c2ccc(-c3ccc(N(C)S(C)(=O)=O)cc3)cc2N(C(=O)C2CC2)C[C@@H]1C [Example I-350]	50 to 500	100 to 500	1000 to 10000
CCS(=O)(=O)c1ccc(-c2ccc3c(c2)N(C(=O)C2CC2)C[C@H](C)N3C(C)=O)cc1 [Example I-1027]	50 to 500	100 to 500	1000 to 10000
COC(=O)N1c2ccc(-c3cnn(CC4(CO)COC4)c3)cc2N(C(=O)OC(C)C)C[C@@H]1C [Example I-630]	50 to 500	100 to 500	< 100
COC(=O)N1c2ccc(-c3cnn(C4CC4)c3)cc2N(C(=O)OC2CCOCC2)C[C@@H]1C [Example I-1002]	50 to 500	100 to 500	100 to 1000
COc1ccc(F)cc1OC(=O)N1C[C@H](C)N(C(C)=O)c2ccc(-c3cnn(C4CC4)c3)cc21 [Example I-1201]	< 50	100 to 500	100 to 1000
CCOC(=O)N1C[C@H](C)N(C(C)=O)c2ccc(-c3ccc(OC)c(S(=O)(=O)N(CC)CC)c3)cc21 [Example I-1114]	50 to 500	> 500	100 to 1000
CC(=O)N1c2ccc(-c3cccc(-n4nc(C)cc4C)c3)cc2N(C(=O)c2ccco2)C[C@@H]1C [Example I-857]	< 50	> 500	100 to 1000
C[C@H]1CN(C(=O)C2CC2)c2cc(-c3ccc(N4CCS(=O)(=O)CC4)cc3)ccc2N1C(=O)C1CC1 [Example I-436]	50 to 500	100 to 500	100 to 1000
C[C@H]1CN(C(=O)OC2CCOCC2)c2cc(-c3cnn(C4CC4)c3)ccc2N1C(=O)C1CC1 [Example I-1001]	50 to 500	100 to 500	100 to 1000
COc1ncc(Cl)cc1OC(=O)N1C[C@H](C)N(C(C)=O)c2ccc(-c3cnn(C4CC4)c3)cc21 [Example I-1207]	50 to 500	> 500	100 to 1000
CC(=O)N1c2ccc(-c3ccc(S(=O)(=O)N(C)C)c(C)c3)cc2N(C(=O)OC(C)C)C[C@@H]1C [Example I-1299]	50 to 500	100 to 500	100 to 1000
CC(=O)N1c2ccc(-c3cnn(CCC#N)c3)cc2N(C(=O)Oc2ccc(F)cc2F)C[C@@H]1C [Example I-1012]	< 50	100 to 500	100 to 1000
CC(=O)N1c2ccc(-c3cnn(C4CC4)c3)cc2N(c2nn(C)c3cnccc23)C[C@@H]1C [Example I-185, 1-[(2S)-6-(1-cyclopropyl-1H-pyrazol-4-yl)-2-methyl-4-{1-methyl-1H-pyrazolo[3,4-c]pyridin-3-yl}-1,2,3,4-tetrahydroquinoxalin-1-yl]ethan-1-one]	< 50	< 100	100 to 1000
CC(=O)N1c2ccc(-c3cnn(C4COC4)c3)cc2N(c2nn(C)c3ccccc23)C[C@@H]1C [Example I-53, (S)-1-(2-methyl-4-(1-methyl-1H-indazol-3-yl)-6-(1-(oxetan-3-yl)-1H-pyrazol-4-yl)-3,4-dihydroquinoxalin-1(2H)-yl)ethanone]	< 50	100 to 500	100 to 1000
CC(=O)N1c2ccc(-c3cnn(C4CC4)c3)cc2N(C(=O)OC(C)C)C[C@@H]1C [Example I-22, (S)-isopropyl 4-acetyl-7-(1-cyclopropyl-1H-pyrazol-4-yl)-3-methyl-3,4-dihydroquinoxaline-1(2H)-carboxylate]	50 to 500	< 100	100 to 1000
CC(C)OC(=O)N1C[C@H](C)N(C(=O)C2CC2)c2ccc(-c3ccc(C4(O)COC4)cc3)cc21 [Example I-474]	50 to 500	> 500	100 to 1000
CC(=O)N1c2ccc(-c3cnn(C4CC4)c3)cc2N(C(=O)Oc2ccc(C)cc2Cl)C[C@@H]1C [Example I-504]	50 to 500	100 to 500	100 to 1000
CC(C)OC(=O)N1C[C@H](C)N(C(=O)C2CC2)c2ccc(-c3cnn(C4COC4)c3)cc21 [Example I-317]	50 to 500	100 to 500	100 to 1000
